Results reported in article PMC10500703 (Journal of medicinal chemistry, 2021).

Experiments:
Assay type in all cases: cell-based, Mycobacterium tuberculosis
Mtb ∆cyd = test system: Mtb ∆cyd
[1] = test system: Mtb InhA-OE (H37Rv-LP:fabG1/inhA-c-15t)
Mtb EthA C253R = test system: Mtb EthA C253R

Molecule | MIC (Mtb ∆cyd) [µM] | MIC [1] [µM] | MIC (Mtb EthA C253R) [µM]
3-(1,3-bis(4-chlorophenyl)-1H-pyrazol-5-yl)-N-(methylsulfonyl)propanamide [Compound 8] | 4 | 0.24 | 
CCc1cc(C(N)=S)ccn1 [ETH, Ethionamide] |  |  | >125
